Here are results for 14 compounds from PubChem BioAssay (NCI).

Values joined by “and” are separate entries in the source; they are usually repeats but may differ in a detail not shown here. Equal entries are not always repeated.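 Five concentrations, 48 hours, 96-well plates. GI50 marks 50% less growth. At the TGI there is no net growth.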

Test systems include BT-549 breast; EKVX NSCLC; HS 578T breast; K-562 leukemia; MALME-3M melanoma; MCF7 breast; NCI-H23 lung; NCI-H460 lung; NCI-H522 lung; UO-31 renal.
Assay in all cases: growth of human tumour cells (NCI), 48 h

Consider `CC1=NOC(=O)/C1=C/c1ccc2c(c1)OCO2`, for which the TGI with BT-549 breast was 56.8 µM; in the assay on EKVX NSCLC it was over 100 µM; in the assay on HS 578T breast, over 100 µM; in the assay on K-562 leukemia, over 100 µM; in the assay with MALME-3M melanoma, over 100 µM; in the assay on MCF7 breast it was over 100 µM. The TGI in the assay with NCI-H23 lung was over 100 µM; in the assay on NCI-H460 lung it was over 100 µM; with NCI-H522 lung it was over 100 µM; in the assay on UO-31 renal it was 38.9 µM.
On to `Cc1ccc(C(=O)NC2CC2)cc1-c1ccc2[nH]ncc2c1`, for which the GI50 is over 25 µM in the assay with BT-549 breast; over 25 µM with EKVX NSCLC; over 19.5 µM in the assay with HS 578T breast; over 22 µM in the assay on K-562 leukemia; over 25 µM in the assay on MALME-3M melanoma; over 25 µM with MCF7 breast. Moreover, the GI50 was over 25 µM in the assay with NCI-H23 lung, over 25 µM with NCI-H460 lung, over 25 µM with NCI-H522 lung and over 22.9 µM with UO-31 renal. The TGI in the assay on BT-549 breast, with EKVX NSCLC, with HS 578T breast, with K-562 leukemia, with MALME-3M melanoma and in the assay on MCF7 breast was over 25 µM each time. Further, the TGI in the assay on NCI-H23 lung, with NCI-H460 lung, with NCI-H522 lung and with UO-31 renal was over 25 µM throughout.
Turning to `C[C@]12C[C@H](O)[C@H]3[C@@H](CCC4=CC(=O)CC[C@@]43C)[C@@H]1CC[C@@H]2c1csc(-c2ccccc2)n1`, the TGI was over 100 µM with BT-549 breast; over 100 µM in the assay with EKVX NSCLC; over 80 µM with HS 578T breast; over 100 µM with K-562 leukemia; 97.3 µM in the assay on MALME-3M melanoma; over 100 µM in the assay with MCF7 breast. Also, the TGI was over 100 µM in the assay on NCI-H23 lung, over 100 µM in the assay with NCI-H460 lung, over 100 µM with NCI-H522 lung and over 46.2 µM in the assay with UO-31 renal.
In the case of `C=C1CCC2C3(C)COC(c4ccccc4Cl)OC3CCC2(C)C1/C=C/C1=CCOC1=O` (stereo not given), the GI50 in the assay on BT-549 breast was 3.55 µM; in the assay with EKVX NSCLC, 2.82 µM; with HS 578T breast, over 100 µM; in the assay on K-562 leukemia it was 3.61 µM; in the assay on MALME-3M melanoma, 17.2 µM; in the assay with MCF7 breast, 4.38 µM. Also, the GI50 with NCI-H23 lung was 6.18 µM; in the assay with NCI-H460 lung, 5.96 µM; in the assay with NCI-H522 lung it was 4.24 µM; in the assay with UO-31 renal, 6.95 µM. Further, the TGI was 72.9 µM in the assay with BT-549 breast; over 100 µM with EKVX NSCLC; over 100 µM in the assay with HS 578T breast; over 100 µM in the assay with K-562 leukemia; over 100 µM in the assay with MALME-3M melanoma; over 100 µM with MCF7 breast. The TGI with NCI-H23 lung, in the assay with NCI-H460 lung, in the assay with NCI-H522 lung and in the assay on UO-31 renal was over 100 µM throughout.
For the compound `CC1=C(C)SC(=C2Sc3c(n(C)c(=O)n(C)c3=O)S2)S1`, the TGI with BT-549 breast, with EKVX NSCLC, with HS 578T breast, in the assay with K-562 leukemia, in the assay on MALME-3M melanoma and in the assay on MCF7 breast was over 100 µM throughout. Moreover, the TGI with NCI-H23 lung, in the assay with NCI-H460 lung, in the assay on NCI-H522 lung and in the assay on UO-31 renal was over 100 µM throughout.
Turning to `COc1cc(C(=O)c2cocc2C(=O)c2ccc3c(c2)OCO3)cc(OC)c1OC`, the TGI in the assay on BT-549 breast was 0.552 µM; in the assay with EKVX NSCLC it was over 58.3 µM; in the assay with HS 578T breast it was 5.27 µM; with K-562 leukemia, over 94.9 µM; in the assay on MALME-3M melanoma, 29.1 µM; in the assay with MCF7 breast, over 100 µM. The TGI in the assay with NCI-H23 lung amounted to 26.2 µM; with NCI-H460 lung, 23.4 µM; with NCI-H522 lung, 1.85 µM; with UO-31 renal it was 33.9 µM.
On to `NC(=O)NN=C1Cc2ccccc2C1`, for which the TGI in the assay with BT-549 breast, with EKVX NSCLC, with HS 578T breast, in the assay on K-562 leukemia, with MALME-3M melanoma and in the assay on MCF7 breast was over 100 µM each time. The TGI in the assay with NCI-H23 lung, in the assay on NCI-H460 lung, with NCI-H522 lung and with UO-31 renal was over 100 µM in each case.
For the compound `CCOC(=O)C1=C(C)NC(c2ccco2)=C(C#N)C1c1cccc([N+](=O)[O-])c1` (stereo not given), the GI50 was 0.153 µM in the assay on BT-549 breast; 0.0263 µM with EKVX NSCLC; 0.0194 µM in the assay on K-562 leukemia; 0.0339 µM in the assay with MCF7 breast; 0.0251 µM with NCI-H23 lung; 0.0633 µM in the assay on NCI-H460 lung. The GI50 with UO-31 renal was 0.14 µM. The TGI in the assay on BT-549 breast was found to be 18 µM; with EKVX NSCLC it was 88.6 µM; in the assay with HS 578T breast, 0.0885 µM; with MALME-3M melanoma, 23.6 µM; in the assay on MCF7 breast, 20.8 µM; with NCI-H23 lung it was 0.0947 µM. Moreover, the TGI in the assay on NCI-H460 lung is 0.432 µM; in the assay on NCI-H522 lung, 0.0371 µM; in the assay on UO-31 renal, 27.9 µM.
For the compound `COC(=O)N[C@H]1CCc2c(Cl)c(OC)c(OC)c(OC)c2-c2ccc(SC)c(=O)cc21`, the GI50 in the assay on BT-549 breast, with EKVX NSCLC, in the assay on HS 578T breast, in the assay with K-562 leukemia, with MALME-3M melanoma and in the assay on MCF7 breast was under 0.01 µM each time. Besides, the GI50 in the assay with NCI-H23 lung was under 0.01 µM; in the assay on NCI-H460 lung, under 0.01 µM; in the assay with NCI-H522 lung it was under 0.01 µM; with UO-31 renal, under 0.0215 µM. In addition, the TGI is 1.52 µM in the assay on BT-549 breast; 96.9 µM in the assay with EKVX NSCLC; over 100 µM in the assay on HS 578T breast; over 43.9 µM in the assay with K-562 leukemia; 30.5 µM in the assay with MALME-3M melanoma; over 37.4 µM in the assay on MCF7 breast. For the same compound, the TGI stood at 37 µM with NCI-H23 lung, 1.05 µM with NCI-H460 lung, 20.3 µM with NCI-H522 lung and 51.7 µM with UO-31 renal.
Take `CC1(C)CCC[C@]2(C)c3ccccc3C(=O)CC12` (stereo not given in full): the GI50 in the assay with BT-549 breast is 39.4 µM; in the assay with EKVX NSCLC, 42.9 µM; in the assay on HS 578T breast, 23.2 µM; in the assay with K-562 leukemia, 41.4 µM; with MALME-3M melanoma, 29 µM; in the assay with MCF7 breast, 38.2 µM. The GI50 in the assay on NCI-H23 lung was 39.4 µM; in the assay with NCI-H460 lung, 34.9 µM; in the assay with NCI-H522 lung, 27.7 µM; in the assay with UO-31 renal, 53.1 µM. Also, the TGI was over 100 µM in the assay with BT-549 breast; over 100 µM with EKVX NSCLC; 95.3 µM in the assay on HS 578T breast; over 100 µM in the assay with K-562 leukemia; over 100 µM with MALME-3M melanoma; over 100 µM in the assay with MCF7 breast. Moreover, the TGI in the assay with NCI-H23 lung is over 100 µM; with NCI-H460 lung, over 100 µM; in the assay with NCI-H522 lung, 76.1 µM; with UO-31 renal it was over 100 µM.
On to `CS(=O)(=O)N(c1cc(-c2ccc3ncnc(Nc4ccc(F)c(Cl)c4)c3c2)cnc1Cl)S(C)(=O)=O`, for which the GI50 was 0.638 µM in the assay with BT-549 breast; 0.649 µM in the assay on EKVX NSCLC; 0.218 µM in the assay on HS 578T breast; 2.45 µM in the assay on K-562 leukemia; 0.267 µM in the assay on MALME-3M melanoma; 0.246 µM with MCF7 breast. Also, the GI50 in the assay with NCI-H23 lung was 0.861 µM; in the assay on NCI-H460 lung, 1.76 µM; in the assay with NCI-H522 lung, 1.57 µM; with UO-31 renal, 0.27 µM. For the same compound, the TGI in the assay with BT-549 breast is 5.06 µM; in the assay on EKVX NSCLC, 5.19 µM; in the assay on HS 578T breast it was 2.61 µM; with K-562 leukemia, over 100 µM; with MALME-3M melanoma, 2.12 µM; with MCF7 breast it was 3.58 µM. Further, the TGI with NCI-H23 lung came out at 5.15 µM; with NCI-H460 lung, 13.5 µM; in the assay with NCI-H522 lung it was 11.1 µM; in the assay on UO-31 renal, 2.99 µM.
As to `COc1ccc(-c2cc(=O)c3c(O)c(OC)c(OC)c(OC)c3o2)cc1`, the TGI in the assay on BT-549 breast is over 100 µM; in the assay on EKVX NSCLC, over 100 µM; with HS 578T breast, over 93.7 µM; with K-562 leukemia it was over 100 µM; with MALME-3M melanoma, over 100 µM; with MCF7 breast, over 100 µM. Further, the TGI is over 74.7 µM in the assay with NCI-H23 lung, over 100 µM with NCI-H460 lung, over 100 µM in the assay on NCI-H522 lung and over 100 µM in the assay with UO-31 renal.
As to `CCCCn1c(=O)c(/C=C/C(=O)/C=C/c2cc3ccccc3n(CCCC)c2=O)cc2ccccc21`, the GI50 is 0.702 µM in the assay on BT-549 breast; 1.88 µM in the assay with EKVX NSCLC; 3.01 µM in the assay on HS 578T breast; 2.29 µM in the assay on MALME-3M melanoma; 0.306 µM in the assay with MCF7 breast; 1.8 µM in the assay on NCI-H460 lung. The GI50 with NCI-H522 lung was 1.86 µM; in the assay on UO-31 renal, 1.53 µM. Besides, the TGI in the assay with BT-549 breast was determined as 2.2 µM; with EKVX NSCLC it was 4.42 µM; in the assay on HS 578T breast it was 23.7 µM; in the assay on MALME-3M melanoma, 5.33 µM; with MCF7 breast, 1.84 µM; in the assay on NCI-H460 lung it was 3.49 µM. In addition, the TGI amounted to 4.07 µM with NCI-H522 lung and 3.21 µM with UO-31 renal.
Turning to `CCC1=C(CC2NCCc3ccccc32)CC2c3cc(OC)c(OC)cc3CCN2C1` (stereo not given), the GI50 with BT-549 breast was 9.07 µM; with EKVX NSCLC it was 4.81 µM; with HS 578T breast, 3.07 µM; in the assay on K-562 leukemia, 2.26 µM; in the assay with MALME-3M melanoma, 3.02 µM; with MCF7 breast, 2.95 µM. Further, the GI50 with NCI-H23 lung is 5.2 µM; in the assay with NCI-H460 lung, 3.28 µM; with NCI-H522 lung, 4.22 µM; in the assay on UO-31 renal, 4.73 µM. In addition, the TGI in the assay with BT-549 breast was 21.2 µM and 9.89 µM; with HS 578T breast, 12.8 µM and 3.73 µM; in the assay on K-562 leukemia it was 7.41 µM and 2.1 µM; with MALME-3M melanoma, 9.64 µM and 2.75 µM; in the assay with MCF7 breast it was 10.6 µM and 2.3 µM; in the assay with NCI-H23 lung it was 35.9 µM and 13.1 µM. Moreover, the TGI was 11.7 µM and 3.57 µM with NCI-H460 lung; 29.7 µM and 3.35 µM in the assay on UO-31 renal.
